Patent US20100233681A1, “METHOD FOR CELL BASED ASSAYS” (GE Healthcare UK Limited, priority 2006, published 2010)

System: U2OS osteosarcoma cells
Details: 250 ml of a 40 mM solution of histamine added after 20 seconds; control cells steady state 4500000 fluorescence units; 37° C.; FluoroMax-3 spectrofluorimeter
Protocol: i) U2OS osteosarcoma cells were grown on collagen coated CYTODEX™ 3 microcarriers (GE Healthcare) according to the Manufacturer's instructions in DMEM media (Invitrogen) supplemented with 10% (v/v) fetal bovine serum (Sigma). Once the culture had attained the required volume and cell density the cells on beads were loaded with 1 μM Fluo-4 (Invitrogen). Microcarriers were allowed to settle, the growth media removed and replaced with calcium flux buffer (145 mM sodium chloride, 5 mM potassium chloride, 1 mM magnesium sulphate, 10 mM HEPES, 10 mM D-glucose, 1 mM calcium chloride containing 1% BSA, 1 μM Fluo-4 (Invitrogen) and the cells incubated for 40 minutes at 37° C. Beads were allowed to settle, the calcium flux buffer removed and replaced with DMEM media supplemented with 10% (v/v) fetal bovine serum and glycerol (10% v/v final concentration) was added as a cryo-preservative. Fluo-4 loaded cells on beads were divided into aliquots of 8×10^5 cells and the 1 ml aliquots frozen to −140° C. at a freezing rate of 1° C./minute. ii) To set up the cell assay, vials of cryo-preserved cells were rapidly thawed in a water bath at 37° C. and cells on bead suspensions placed in 1.5 ml spectrofluorimeter cuvettes and equilibrated at 37° C. for 30 minutes. Fluorescence measurements were acquired over time using a FluoroMax-3 spectrofluorimeter using excitation and emission settings for Fluo-4.

## NCCc1c[nH]cn1 [histamine]
  Fluo-4 fluorescence after addition of histamine (intracellular calcium release): 5170000 fluorescence units
